Several values for one entry are separate records, joined by “and”; a condition that tells them apart may be missing. Equal values may be shown once. Toxic doses and inconclusive results are not listed. No stated cut-off is given here; in the data, active means T/C of 150% or more; inactive means T/C below 125%.
System: L1210 leukemia ip in BDF1 mice, survival T/C
Assay: NCI In Vivo Anticancer Drug Screen. Data for tumor model L1210 Leukemia (intraperitoneal) in B6D2F1 (BDF1) mice
Settings: endpoint: mean survival time, higher = longer survival
Summary of the method: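 Tumor cells were implanted, animals were treated, and survival was followed. The result divides the treated measurement by the vehicle-control measurement.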

[1] = dose: 100.0 mg/kg/injection, schedule: Q04DX003 (ip), vehicle: Klucel (hydroxypropylcellulose) (HPC)
[2] = dose: 200.0 mg/kg/injection, schedule: Q04DX003 (ip), vehicle: Klucel (hydroxypropylcellulose) (HPC)
[3] = dose: 400.0 mg/kg/injection, schedule: Q04DX003 (ip), vehicle: Klucel (hydroxypropylcellulose) (HPC)
[4] = dose: 100.0 mg/kg/injection, schedule: Q04DX002 (ip), vehicle: saline with Tween-80
[5] = dose: 200.0 mg/kg/injection, schedule: Q04DX002 (ip), vehicle: saline with Tween-80
[6] = dose: 100.0 mg/kg/injection, schedule: Q01DX001 (ip), vehicle: Klucel (hydroxypropylcellulose) (HPC)
[7] = dose: 200.0 mg/kg/injection, schedule: Q01DX001 (ip), vehicle: Klucel (hydroxypropylcellulose) (HPC)
[8] = dose: 400.0 mg/kg/injection, schedule: Q01DX001 (ip), vehicle: Klucel (hydroxypropylcellulose) (HPC)
[9] = dose: 100.0 mg/kg/injection, schedule: Q04DX003 (ip), vehicle: saline with Tween-80
[10] = dose: 400.0 mg/kg/injection, schedule: Q04DX003 (ip), vehicle: saline with Tween-80
[11] = dose: 200.0 mg/kg/injection, schedule: Q04DX003 (ip), vehicle: saline with Tween-80

Measured: T/C

c1ccc(-c2csc(-c3nc(-c4ccccc4)cs3)n2)cc1
inactive: [1] 90 % of control | [2] 95 % of control | [3] 102 % of control

CC(C)P(=O)(CCP(=O)(c1ccccc1)c1ccccc1)c1ccccc1 (centres undefined)
inactive: dose: 50.0 mg/kg/injection, schedule: Q04DX002 (ip), vehicle: saline with Tween-80 106 % of control | [4] 100 % of control | [5] 87 % of control

O=[N+]([O-])c1cc(Cl)cc2c1-c1c(Cl)cc(Cl)cc1/C2=N/O
inactive: dose: 25.0 mg/kg/injection, schedule: Q01DX009 (ip), vehicle: Klucel (hydroxypropylcellulose) (HPC) 106 % of control | dose: 50.0 mg/kg/injection, schedule: Q01DX009 (ip), vehicle: Klucel (hydroxypropylcellulose) (HPC) 94 % of control | [1] 101 % of control

CCOP(=O)(Nc1ccc2c(c1)C(O)c1ccccc1-2)OCC (centres undefined)
inactive: dose: 50.0 mg/kg/injection, schedule: Q01DX001 (ip), vehicle: carboxymethylcellulose (CMC) 100 % of control | dose: 100.0 mg/kg/injection, schedule: Q01DX001 (ip), vehicle: carboxymethylcellulose (CMC) 94 % of control | dose: 200.0 mg/kg/injection, schedule: Q01DX001 (ip), vehicle: carboxymethylcellulose (CMC) 103 % of control | dose: 400.0 mg/kg/injection, schedule: Q01DX001 (ip), vehicle: carboxymethylcellulose (CMC) 103 % of control

Clc1nc2ncn3cnnc3c2[nH]1
inactive: [6] 108 % of control | [7] 98 % of control | [8] 93 % of control

O=C(COC1CCCCC1)OC1CCCCC1
inactive: dose: 100.0 mg/kg/injection, schedule: Q01DX009 (ip), vehicle: saline with Tween-80 95 % of control | [9] 98 % of control | dose: 200.0 mg/kg/injection, schedule: Q01DX009 (ip), vehicle: saline with Tween-80 96 % of control | dose: 400.0 mg/kg/injection, schedule: Q01DX009 (ip), vehicle: saline with Tween-80 94 % of control | [10] 86 % of control

CCOC(=O)c1cnc(SC)nc1Nc1ccccc1
inactive: [9] 94 % of control | [11] 100 % of control | [10] 86 % of control

CSC1=[N+](C)CCS1
inactive: dose: 75.0 mg/kg/injection, schedule: Q01DX001 (ip), vehicle: saline 106 % of control | dose: 75.0 mg/kg/injection, schedule: Q04DX003 (ip), vehicle: saline with Tween-80 109 % of control | dose: 87.5 mg/kg/injection, schedule: Q01DX009 (ip), vehicle: saline 98 % of control | dose: 150.0 mg/kg/injection, schedule: Q01DX001 (ip), vehicle: saline 107 % of control | dose: 150.0 mg/kg/injection, schedule: Q04DX003 (ip), vehicle: saline with Tween-80 101 % of control | dose: 175.0 mg/kg/injection, schedule: Q01DX009 (ip), vehicle: saline 100 % of control

CN(C)C1CCCCCCC1
inactive: dose: 75.0 mg/kg/injection, schedule: Q01DX001 (ip), vehicle: acetone 95 % of control

Cc1cc2nc3[nH]c4ccccc4c3nc2cc1C
inactive: dose: 12.5 mg/kg/injection, schedule: Q01DX015 (ip), vehicle: saline 98 % of control | dose: 25.0 mg/kg/injection, schedule: Q01DX015 (ip), vehicle: saline 87 % of control | dose: 50.0 mg/kg/injection, schedule: Q01DX001 (ip), vehicle: saline 91 % of control | dose: 50.0 mg/kg/injection, schedule: Q01DX015 (ip), vehicle: saline 115 % of control | dose: 100.0 mg/kg/injection, schedule: Q01DX001 (ip), vehicle: saline 94 % of control | dose: 100.0 mg/kg/injection, schedule: Q01DX015 (ip), vehicle: saline 120 % of control | dose: 200.0 mg/kg/injection, schedule: Q01DX001 (ip), vehicle: saline 91 % of control | dose: 200.0 mg/kg/injection, schedule: Q01DX015 (ip), vehicle: saline 108 % of control and 90 % of control | dose: 400.0 mg/kg/injection, schedule: Q01DX001 (ip), vehicle: saline 97 % of control | dose: 400.0 mg/kg/injection, schedule: Q01DX015 (ip), vehicle: saline 104 % of control | dose: 800.0 mg/kg/injection, schedule: Q01DX001 (ip), vehicle: saline 103 % of control | dose: 800.0 mg/kg/injection, schedule: Q01DX015 (ip), vehicle: saline 87 % of control

FC1(F)C(F)(F)C(Cl)(Cl)C1(Cl)Cl
inactive: dose: 100.0 mg/kg/injection, schedule: Q04DX003 (ip), vehicle: saline 104 % of control | dose: 200.0 mg/kg/injection, schedule: Q04DX003 (ip), vehicle: saline 96 % of control | dose: 400.0 mg/kg/injection, schedule: Q04DX003 (ip), vehicle: saline 107 % of control

O=C(O)/C=C\C(=O)Nc1ccccc1C(=O)O
inactive: [9] 98 % of control | [11] 97 % of control | [10] 111 % of control

OCCOc1ccccc1
inactive: [4] 100 % of control | [5] 95 % of control | dose: 400.0 mg/kg/injection, schedule: Q04DX002 (ip), vehicle: saline with Tween-80 91 % of control

CC(=O)N(C(C)=O)c1ccc2c(c1)-n1cccc1C2=O
inactive: [1] 100 % of control | [2] 101 % of control | [3] 98 % of control

CC(=O)Nc1ncc(CCC2OCCO2)c(=O)[nH]1
inactive: [6] 95 % of control | [7] 97 % of control | [8] 98 % of control

COc1cc(C(=O)CCC(=O)O)c(OC)c(CBr)c1CBr
inactive: dose: 5.0 mg/kg/injection, schedule: Q01DX001 (ip), vehicle: other 101 % of control | dose: 10.0 mg/kg/injection, schedule: Q01DX001 (ip), vehicle: other 110 % of control | dose: 20.0 mg/kg/injection, schedule: Q01DX001 (ip), vehicle: other 101 % of control

O=C(OCC(O)C1OC(COC(=O)c2ccccc2)C1O)c1ccccc1 (centres undefined)
inactive: dose: 100.0 mg/kg/injection, schedule: Q01DX001 (ip), vehicle: saline with Tween-80 101 % of control | dose: 200.0 mg/kg/injection, schedule: Q01DX001 (ip), vehicle: saline with Tween-80 97 % of control | dose: 400.0 mg/kg/injection, schedule: Q01DX001 (ip), vehicle: saline with Tween-80 97 % of control

CCOC(=O)NC1=C(N2CC2C)C(=O)C(NC(=O)OCC)=C(N2CC2C)C1=O (centres undefined)
inactive: dose: 0.93 mg/kg/injection, schedule: Q01DX009 (ip), vehicle: Klucel (hydroxypropylcellulose) (HPC) 94 % of control and 100 % of control | dose: 1.87 mg/kg/injection, schedule: Q01DX009 (ip), vehicle: Klucel (hydroxypropylcellulose) (HPC) 97 % of control and 107 % of control | dose: 3.12 mg/kg/injection, schedule: Q04DX003 (ip), vehicle: Klucel (hydroxypropylcellulose) (HPC) 106 % of control | dose: 3.75 mg/kg/injection, schedule: Q01DX009 (ip), vehicle: Klucel (hydroxypropylcellulose) (HPC) 98 % of control and 100 % of control | dose: 6.25 mg/kg/injection, schedule: Q04DX003 (ip), vehicle: Klucel (hydroxypropylcellulose) (HPC) 95 % of control | dose: 7.5 mg/kg/injection, schedule: Q01DX009 (ip), vehicle: Klucel (hydroxypropylcellulose) (HPC) 102 % of control and 91 % of control | dose: 12.5 mg/kg/injection, schedule: Q04DX003 (ip), vehicle: Klucel (hydroxypropylcellulose) (HPC) 106 % of control | dose: 15.0 mg/kg/injection, schedule: Q01DX009 (ip), vehicle: Klucel (hydroxypropylcellulose) (HPC) 91 % of control | dose: 25.0 mg/kg/injection, schedule: Q04DX003 (ip), vehicle: Klucel (hydroxypropylcellulose) (HPC) 112 % of control | dose: 50.0 mg/kg/injection, schedule: Q04DX003 (ip), vehicle: Klucel (hydroxypropylcellulose) (HPC) 110 % of control
